According to patent US20030207393A1, “Cbp86, a sperm specific protein” (priority 2002, published 2003):
Entries after “also recorded” stand apart in the source; their conditions may differ.

Experiments:
86 kDa form of CBP86 = assay: In vitro capacitation of human sperm, anti-phosphotyrosine (RC-20) 2-D immunoblot of CBP86; format: cell-based; details: for Capacitation-induced tyrosine phosphorylation of the 86 kDa CBP86 isoforms: human sperm capacitated in HTF plus HSA plus 100 μμM progesterone plus 100, 200 or 400 μμM of inhibitor
Protocol: Preparation of semen specimens and solubilization of sperm proteins were performed as previously described (Naaby-Hansen et al, 1997a.) For analytical two-dimensional electrophoresis the detergent/urea extracted proteins were separated by isoelectric focusing (IEF) in acrylamide tube gels prior to second dimensional gel electrophoresis (SDS-PAGE), which was performed in a Protean II xi Multi-Cell apparatus (Bio-Rad, Richmond, Calif.) or on large format (23×23 cm) gels (Investigator 2-D Electrophoresis System, ESA) which were also employed for preparative 2D gel electrophoresis. Electrotransfer to nitrocellulose membranes and subsequent visualizing of the proteins by gold staining was accomplished as previously described (Naaby-Hansen et al, 1997) while electrotransfer to PVDF membranes ([…], Pierce) was carried out as described by Henzel et al. (1993) using the transfer buffer composition of Matsudaira (1987) (10 mM 3-[cyclohexylamino]-1-propanesulfonic acid, 10% methanol, pH 11). The immobilized proteins were visualized by staining in a solution containing 0.1% Commassie R250, 40% methanol and 0.1% acetic acid for one minute, followed by destaining in a solution of 10% acetic acid and 50% methanol for 3×3 minutes.
Motile sperm were harvested by the swim up method of Bronson and Fusi (1990). A control sample was removed and snap frozen (−70 C.), while the remaining sperm were resuspended in one of the following media: Dulbecco's PBS, BWW, BWW plus 3 mM b-cyclodextran (Sigma), BWW plus b-cyclodextran and 100 μμM progesterone, human tubal fluid [HTF] (Irvine) plus HSA (30 mg/ml), HTF plus HSA plus 2, 20 or 100 μμM progesterone, HTF plus HSA plus 100 μμM progesterone plus either 100, 200 or 400 μμM of genestein or daidzein. (Akiyama et al., 1987). Capacitation was achieved by incubating the samples at 37° C. in 5% CO2 with sperm removed at various timepoints and isolated by centrifugation. […]

[1] = tested on: T1, recombinant CBP86 (CR-A of CBP86 with C-terminal six-histidine tag, expressed in E. coli)
T1 sequence: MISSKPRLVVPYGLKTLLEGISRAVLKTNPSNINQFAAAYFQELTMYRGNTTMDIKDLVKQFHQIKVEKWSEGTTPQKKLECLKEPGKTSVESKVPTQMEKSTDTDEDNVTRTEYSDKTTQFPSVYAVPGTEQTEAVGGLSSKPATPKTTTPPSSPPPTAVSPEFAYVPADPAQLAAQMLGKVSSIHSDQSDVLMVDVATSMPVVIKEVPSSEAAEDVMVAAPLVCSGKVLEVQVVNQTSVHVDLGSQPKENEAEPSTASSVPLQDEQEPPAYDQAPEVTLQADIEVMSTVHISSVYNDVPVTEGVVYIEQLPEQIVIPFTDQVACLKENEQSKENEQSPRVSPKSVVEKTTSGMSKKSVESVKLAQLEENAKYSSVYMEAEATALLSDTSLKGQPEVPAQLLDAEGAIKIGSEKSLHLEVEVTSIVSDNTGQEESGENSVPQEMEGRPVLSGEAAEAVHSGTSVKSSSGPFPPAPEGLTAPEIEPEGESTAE

Row | Compound | Capacitation-induced tyrosine phosphorylation of the 86 kDa CBP86 isoforms (86 kDa form of CBP86) | further results
1 | CC(=O)[C@H]1CC[C@H]2[C@@H]3CCC4=CC(=O)CC[C@]4(C)[C@H]3CC[C@]12C [progesterone] | – | Tyrosine phosphorylation of the most acidic of the CBP86 isoforms (86 kDa form of CBP86; 100 microM added to HTF+ albumin capacitation media, compared with HTF plus albumin alone): further enhanced the phosphorylation; also recorded: leads to phosphorylation of tyrosine residues on the acidic CBP86 isoforms
2 | O=c1c(-c2ccc(O)cc2)coc2cc(O)ccc12 [daidzein] | had an inhibitory effect on phosphorylation of CBP86 | –
3 | O=c1c(-c2ccc(O)cc2)coc2cc(O)cc(O)c12 [genistein] | inhibited in a concentration dependent manner | –
4 | baculovirus expressed c-Src (Upstate Biotechnology, Inc.) | – | tyrosine phosphorylation of recombinant CBP86 in an in vitro kinase assay ([32P]ATP, SDS-PAGE, autoradiography) [1]: An increase in tyrosine phosphorylation of CBP86 was noted as its concentration increased in the presence of a constant amount of c-Src
